Results on one compound are retold here after patent US11161826B2, “Manufacturing methods and polymorphs of a thiazoline anti-hyperalgesic agent” (ACADIA PHARMACEUTICALS INC., priority 2019, dated 2021).

Structures can show the parent of a compound that is named as a salt.

Common to all, as to format: physicochemical
Series [1] is described as follows: Solubility in organic/aqueous solvents.
The nature of series [2]: Gravimetric Vapor Sorption (GVS). From the text:
The sample is hygroscopic.

Series [3] in a line: Thermogravimetric Analysis (TGA) decomposition. From the text: The combined DSC/TGA results for (R)-2-(2-hydroxyphenylamino)-5,5-dimethyl-4,5-dihydrothiazole-4-carboxylic acid mono-hydrochloride is provided in FIG. 7. […] An amorphous form of Compound 1 can be made by, for example, lyophilizing crystalline Compound 1 as described in Example 4 herein.

As for `CC1(C)SC(Nc2ccccc2O)=N[C@@H]1C(=O)O` [Compound 1, (R)-2-(2-hydroxyphenylamino)-5,5-dimethyl-4,5-dihydrothiazole-4-carboxylic acid mono-hydrochloride], the solubility result in series [1] (10% water/tetrahydrofuran) is listed as “sparingly soluble”; in series [1] (10% water:iso-propyl acetate) it was “sparingly soluble”; in series [1] (acetone) it was “less than sparingly soluble”; in series [1] (ethanol), “sparingly soluble”; in series [1] (ethyl acetate) it was “less than sparingly soluble”; in series [1] (iso-propanol) it was “sparingly soluble”. The solubility entry in series [1] (iso-propyl acetate) is reported as “less than sparingly soluble”; in series [1] (methanol), “freely soluble”; in series [1] (n-heptane) it was “less than sparingly soluble”; in series [1] (tert-butyl alcohol) it was “less than sparingly soluble”; in series [1] (tert-butyl alcohol:water (1:1)) it was “freely soluble”; in series [1] (tert-butyl methyl ether), “less than sparingly soluble”. Moreover, the solubility entry in series [1] (tetrahydrofuran) was “less than sparingly soluble”; in series [1] (toluene), “less than sparingly soluble”; in series [1] (water) it was “sparingly soluble”. In addition, the hygroscopicity result in series [2] (GVS) is “hygroscopic”. The compound also gave a GVS uptake in series [2] (between 0% and 90% RH) of 6%. Besides, the “TGA start of decomposition (total 5% mass loss)” value in series [3] is around 202 °C.
